From patent US8858934B2, “Method for producing cells having characteristics of hepatocytes” (priority 2010, dated 2014)

Test system: cells of the present invention (Metaheps)
Assay: Long-term toxicity in the cells of the present invention (LDH release over 15 days)
Assay type: cell-based, human
Conditions: Metaheps incubated 15 days with low concentrations (diclofenac 50 μM, acetaminophen 500 μM)
Method: On incubation days 1, 3, 6, 8, 10, 13 and 15 medium samples were drawn and LDH activity in media was determined using the Cytotoxicity Kit from Promega. LDH release was calculated in % as 100×(LDH in media/LDH media+LDH lysate).

Structure (SMILES) | toxicity in Metaheps as measured by LDH release
CC(=O)Nc1ccc(O)cc1 [acetaminophen] | acute toxicity
O=C(O)Cc1ccccc1Nc1c(Cl)cccc1Cl [diclofenac] | long-term toxicity
